Patent US20140315234A1, “METHOD TO GENERATE DOPAMINERGIC NEURONS FROM MOUSE AND HUMAN CELLS” (priority 2010, published 2014)
Where two headings read alike, the source gives them in different places.

Tests used:
[1] = test system: K+ channel; assay type: cell-based, mouse
[2] = test system: K+ currents; experiment: Pharmacological suppression of K+ currents in human iDAN cells; assay type: cell-based
Procedure: (§1) Recordings were performed on reprogrammed mouse and human fibroblasts and primary mesencephalic DA neurons. […] Only cells without signs of detachment from the substrate were used for recordings. Cells were perfused continuously with HEPES-buffered saline (HBS) of the following composition (in mM): 140 NaCl, 5 KCl, 2 CaCl2, 2 MgCl2, 15 HEPES, and 25 glucose, pH 7.4. The patch pipette solution contained (in mM): 130 K-gluconate, 10 KCl, 0.5 CaCl2, 15 HEPES, 5 EGTA, 8 NaCl, 2 MgATP, 0.3 Na2GTP, and 10 glucose, pH adjusted to 7.2 with KOH. Action potentials were recorded in the on-cell and the current-clamp whole-cell configuration. A current was injected to have membrane potentials around −60 mV, and step currents from −50 pA to 40 pA were injected to elicit action potentials. Na^+ currents and composite K^+ currents were recorded in the voltage-clamp configuration by delivering voltage steps ranging from −100 mV to +20 mV in cells held at −60 mV. Delayed rectifier K+ currents were activated by 0.5 s voltage steps from −40 mV to +20 mV after a 0.5 s-long step to −40 mV.

[3] = test system: Na+ currents; assay type: cell-based, human
[4] = test system: Na+ voltage-gated channels; assay type: cell-based, mouse
[5] = test system: D2/D3 receptor; assay type: cell-based, mouse
Procedure: as §1

Compound: Nc1ccncc1 [4-AP, 4-aminopyridine]
- effect on outward K+ currents ([1]; 4-AP 3 mM, TEA 10 mM, in the presence of TTX, n=4): inhibition of outward currents
- effect on K+ currents and action potentials [2]: Suppression

Compound: NC1=N[C@H](O)[C@H]2[C@H]3O[C@]4(O)O[C@@H]([C@@H](O)[C@@]2(N1)[C@@H]4O)[C@]3(O)CO [TTX, tetrodotoxin]
- effect on Na+ currents and action potentials [3]: Suppression
- block of the fast inward current [4]: complete block

Compound: CC[N+](CC)(CC)CC [TEA, tetraethylammonium]
- effect on outward K+ currents [1]: inhibition of outward currents

Compound: CCCN1CCC[C@@H]2Cc3n[nH]cc3C[C@H]21 [quinpirole]
- effect on neuronal firing [5]: drastically suppressed neuronal firing in 6 of 10 recorded cells
